Where two headings read alike, the source gives them in different places. Ends that are not written are not given here.
How the values were obtained:
[1] = target: T1, HLA-A0206 molecule (Homo sapiens, UniProt P04439, D140Y/D185E/D98H/E176V/E277Q/F33Y/G131W/G231S/I119V/I121R/I166T/I218V/L300P/L318F/N151K/N90K/P208A/P217A/Q86G/Q94H/R138H/R169H/T345S); experiment: Experiment of binding peptide to HLA-A0206 molecule (RA2.6 cells, flow cytometry)
T1 construct: expressed in transfected cells; host or cells: RA2.6 cells (RAMS mouse TAP-deficient cells expressing HLA-A*0206 cDNA)
Experimental: (§1) The ability of a peptide to bind to an HLA-A0206 molecule, which is a product of the HLA-A*0206 gene, was measured using RA2.6 cells (cell strain newly prepared in Kochi University), wherein cDNA of the HLA-A*0206 gene is expressed in RAMS cells, which are mouse peptide transporter TAP-deficient cells.
(§2) RA2.6 cells were first cultured overnight at 26° C., serial dilutions of peptide were added to HLA-A0206 molecules having no peptide bound thereto that were deposited on the cell surface, and binding was carried out at room temperature for 30 minutes.
(§3) Subsequently, culturing was carried out at 37° C. for 3.5 hours, empty HLA-A0206 molecules to which no peptide were bound was denatured, and the tertiary structure was lost.
(§4) The cells were stained by adding thereto fluorescently labeled monoclonal antibody 17A10 or 17A12, which specifically recognize the peptide-binding HLA-A0206 molecule, and incubating on ice for 20 minutes.
(§5) Subsequently, the amount of fluorescence per cell was measured using a flow cytometer, and a dissociation constant Kd value was calculated by a published method (Udaka et al., Immunogenetics, 51, 816-828, 2000).

[2] = target: HLA-A2402 molecule (Homo sapiens, UniProt P04439, D101N/D140Y/D185E/E176V/E190D/F33S/G103R/G107R/I119L/I121M/I306V/K335N/L105A/L180Q/L300P/N151K/N90K/Q86E/Q94H/R106L/R138H/R89G/T104I/T345S/V100E/W191G/Y123F); experiment: Experiment of binding peptide to HLA-A2402 molecule (C1R-A24 cells, flow cytometry)
Experimental: (§6) The ability of a peptide to bind to an HLA-A2402 molecule, which is a product of the HLA-A*2402 gene, was measured using C1R-A24 cells expressing the HLA-A*2402 gene (cells prepared by Professor Masafumi Takiguchi, Kumamoto University being supplied with permission by Assistant Professor Masaki Yasukawa, Ehime University).
(§7) C1R-A24 cells were first exposed to acidic conditions at a pH of 3.3 for 30 seconds, thus dissociating and removing a light chain β2m, which is associated with HLA class I molecules in common, and an endogenous peptide originally bound to the HLA-A2402 molecule. After neutralization, purified β2m was added to C1R-A24 cells, the obtained product was added to serial dilutions of a peptide, and incubated on ice for 4 hours. Staining was carried out using fluorescently labeled monoclonal antibody 17A12, which recognizes association (MHC-pep) of the three members, that is, HLA-A2402 molecule, the peptide, and β2m, which had reassociated during the incubation.
(§8) Subsequently, the MHC-pep count per C1R-A24 cell (proportional to the strength of fluorescence of the above-mentioned fluorescent antibody) was quantitatively measured using an FACScan fluorescence-activated cell sorter (Becton Dickinson Biosciences). A binding dissociation constant Kd value between the HLA-A24 molecule and the peptide was calculated from the average strength of fluorescence per cell by a published method (Udaka et al., Immunogenetics, 51, 816-828, 2000).

[3] = system: human HLA-A type molecule; experiment: Binding experiments summarised for HLA-A type molecules
Experimental: as §6, §7, §8
The ability of a peptide to bind to an HLA-A0201 molecule, which is a product of the HLA-A*0201 gene, was measured using strain JY cells expressing the HLA-A*0201 (obtained from ATCC (American Type Culture Collection)).
JY cells were first exposed to acidic conditions at a pH of 3.8 for 30 seconds, thus dissociating and removing a light chain β2m and an endogenous peptide, which were noncovalently associated with the HLA-A0201 molecule. After neutralization, a reassociation experiment was carried out. The above-mentioned JY cells and the purified β2m were added to stepped serial dilutions of peptide for which the binding ability was to be measured, and incubation was carried out on ice for 4 hours. HLA-A0201 molecules that had reassociated up to this point were stained using the associating type specific fluorescently-labeled monoclonal antibody BB7.2.
Subsequently, the amount of fluorescence per cell was measured using a flow cytometer and a dissociation constant Kd value was calculated by a published method (Udaka et al., Immunogenetics, 51, 816-828, 2000).
as §1, §2, §3, §4, §5

[4] = target: HLA-A0201 molecule (Homo sapiens, UniProt P04439, D140Y/D185E/D98H/E176V/E277Q/G131W/G231S/I119V/I121R/I166T/I218V/L300P/L318F/N151K/N90K/P208A/P217A/Q86G/Q94H/R138H/R169H/T345S); experiment: Experiment of binding peptide to HLA-A0201 molecule (JY cells, flow cytometry); details: expressed as -log Kd value
[5] = binding to HLA-A0206 molecule, RA2.6 cells, read-out: BINDING EXPERIMENT DATA (converted)
[6] = binding to HLA-A2402 molecule, C1R-A24 cells, read-out: BINDING EXPERIMENT DATA (converted)

Compound | Kd [2, 6] | binding to a human HLA-A type molecule ([3]; result in words) | further results
CC(C)C[C@H](NC(=O)[C@@H](NC(=O)CN)C(C)C)C(=O)N[C@H](C(=O)N[C@@H](Cc1c[nH]cn1)C(=O)N1CCC[C@H]1C(=O)N[C@@H](CCC(N)=O)C(=O)N[C@@H](Cc1c[nH]c2ccccc12)C(=O)N[C@H](C(=O)O)C(C)C)C(C)C [compound 19] | – | – | Kd [1, 5]: 525 nM
WVPVVFLTL [compound 24] | – | – | Kd [1, 5]: 182 nM
DLPTQEPAL [compound 27] | – | – | Kd [1, 5]: 5440 nM
WVLTAAHCI [compound 20] | – | – | Kd [1]: 1130 nM
WVPVVFLTL [compound 2] | 50.9 nM | experimentally confirmed to bind | –
QVFQVSHSF [compound 5] | 47.8 nM | experimentally confirmed to bind | –
WVLTAAHCI [compound 12] | – | – | Kd [2]: 23200 nM; binding to a human HLA-A type molecule [3]: experimentally confirmed to bind
FHPEDTGQV [compound 13] | – | – | Kd [4]: 2960 nM
DLPTQEPAL [compound 4] | 5870 nM | experimentally confirmed to bind | –
CC(C)C[C@H](N)C(=O)N[C@H](C(=O)N[C@@H](C)C(=O)N[C@@H](CO)C(=O)N[C@@H](CCCNC(=N)N)C(=O)NCC(=O)N[C@@H](CCCNC(=N)N)C(=O)N[C@@H](C)C(=O)N[C@H](C(=O)O)C(C)C)C(C)C [compound 22] | – | – | Kd [1, 5]: 5580 nM
VHPQKVTKF [compound 7] | 223 nM | experimentally confirmed to bind | –
CC(C)C[C@H](NC(=O)[C@@H](NC(=O)[C@H](Cc1c[nH]c2ccccc12)NC(=O)[C@H](CCC(N)=O)NC(=O)[C@@H]1CCCN1C(=O)[C@H](Cc1c[nH]cn1)NC(=O)[C@@H](NC(=O)[C@H](CC(C)C)NC(=O)[C@@H](N)C(C)C)C(C)C)C(C)C)C(=O)O [compound 9] | 458 nM | experimentally confirmed to bind | –
GVLQGITSW [compound 8] | 4200 nM | experimentally confirmed to bind | –

Continued, in another order:

Kd [2, 6] | binding to a human HLA-A type molecule ([3]; result in words) | Compound | further results
62 nM | experimentally confirmed to bind | ILSRIVGGW [compound 6] | –
33.5 nM | experimentally confirmed to bind | ILLGRHSLF [compound 3] | –
